Experiments:
HK2 cells = assay: CCK-8 cytotoxicity assay in HK2 cells; assay type: cell-based, human; conditions: CCK-8, 24 h compound exposure, 3 to 1000 μM
Method: (§1) This study systematically investigated the cytotoxic effects and structure-activity relationships of denitroaristolochic acid analogs (DAA-II, DAA-III, DAA-IV, DAA-V) on human renal cortical proximal tubular epithelial cells (HK2) using the cell counting kit-8 (CCK-8) assay. HK2 cells were maintained in Dulbecco’s modified eagle medium (DMEM) supplemented with 10% fetal bovine serum under standard culture conditions (37 °C, 5% CO2). At 80% confluence, cells were trypsinized and seeded into 96-well plates at a density of 1 × 10^4 cells/well, followed by a 4–6 h attachment period prior to compound exposure. Stock solutions ([…]) of each DAA were prepared in DMSO and serially diluted to final concentrations ranging from 3 to 1000 μM, with DMSO concentration strictly maintained at 0.5% (v/v) in all treatment groups. Experimental controls included AA-I as positive control and 0.5% DMSO-containing medium as vehicle control. Following 24 h compound exposure, cell viability was assessed using CCK-8 reagent according to manufacturer specifications: 10 μL CCK-8 solution was added to each well, followed by 2 h incubation under light-protected conditions. Absorbance was measured at 450 nm using a microplate reader, with morphological observations conducted via inverted phase-contrast microscopy.
(§2) This study systematically evaluated the cytotoxic effects of aristolochic acids (AAs) on HK2 cells (the HK2 cell lines were from the Cell Bank of the Chinese Academy of Sciences) using the CCK-8 assay. […] This finding provides novel insights into the toxicological mechanisms of aristolochic acid analogs, and their precise mode of action warrants further elucidation through integrated toxicological approaches, including metabolomic profiling, signaling pathway screening, and molecular docking studies.

[1] = CCK-8 cytotoxicity assay in HK2 cells; assay type: cell-based, human; conditions: human, CCK-8, 24 h compound exposure, 3 to 1000 μM, ND: not detected, read-out: IC50 (μM), cytotoxic effects on HK2 cells in vitro
Method: as §1, §2

COc1cc2ccc3c(C(=O)O)cc4c(c3c2cc1OC)OCO4 [DAA-V, 9,10-Dimethoxyphenanthro [3,4-d][1,3]dioxole-5-carboxylic acid]
cytotoxicity in human renal proximal tubular epithelial cells (result in words) (HK2 cells): no detectable cytotoxicity

COc1ccc2ccc3c(C(=O)O)cc4c(c3c2c1)OCO4 [DAA-III, 10-Methoxyphenanthro [3,4-d][1,3]dioxole-5-carboxylic acid]
IC50 [1]: 371 µM

COc1cc(OC)c2ccc3c(C(=O)O)cc4c(c3c2c1)OCO4 [DAA-IV, 8,10-dimethoxyphenanthro [3,4-d][1,3]dioxole-5-carboxylic acid]
IC50 [1]: 515 µM

COc1cccc2c1cc([N+](=O)[O-])c1c(C(=O)O)cc3c(c12)OCO3 [AA-I, aristolochic acid I, reference compound]
IC50 at 24 h [1]: 270 µM

O=C(O)c1cc2c(c3c1ccc1ccccc13)OCO2 [DAA-II, phenanthro [3,4-d][1,3]dioxole-5-carboxylic acid]
cytotoxicity in human renal proximal tubular epithelial cells (result in words) (HK2 cells): no detectable cytotoxicity

Source: PMC12293755, “Synthesis and Cytotoxicity Evaluation of Denitroaristolochic Acids: Structural Insights and Mechanistic Implications in Nephrotoxicity” (Biomolecules, 2025)
